In ChEMBL document CHEMBL1151100, “Potential cancer chemopreventive and cytotoxic agents from Pulicaria crispa” (1988) one finds EC50 and Activity data, which are given here for four molecules.

The structures appear in SMILES notation. Values after ≈ are worked out from the molar mass of the structure shown.

The test system of one experiment is KB. The experiment is described as follows: Cytotoxicity against human KB cells. The format is functional. The following applies: read-out: ED50 (the source's name).
A short description of experiment [1]: Anticarcinogenic activity in hamster embryonic cells at 25 ug/mL after 30 mins relative to control. The format is functional, Cricetinae.

In the case of `C=C1C(=O)O[C@@H]2C[C@@]3(C)C[C@@H](O)C[C@H](C)C3=C[C@H]12`, the EC50 in the experiment on KB amounted to 0.33 µg/mL (≈ 1.33 µM).
Regarding `C=C1C(=O)O[C@@H]2C[C@@]3(C)C[C@@H](OC(C)=O)C[C@H](C)[C@@]34O[C@H]4[C@H]12`, in the experiment with KB, the EC50 stood at 0.05 µg/mL (≈ 0.163 µM).
As to `C=C1C(=O)O[C@@H]2C[C@@]3(C)C[C@@H](O)C[C@H](C)[C@@]34O[C@H]4[C@H]12`, the EC50 with KB turned out to be 0.4 µg/mL (≈ 1.51 µM).
Regarding `COc1c(O)cc2oc(-c3ccc(O)c(O)c3)c(OC)c(=O)c2c1O` [AXILLARIN], in experiment [1], the Activity turned out to be 61.3%.
